In paper PMC5701060, “Inhibition of the inflammatory response to stress by targeting interaction between PKR and its cellular activator PACT” (Scientific Reports, 2017):

Target: T1, PKR/PACT (GST-PKR-Nter / His-PACT) (Homo sapiens, UniProt O75569+P19525)
T1 construct: gene EIF2AK2; PKR 1-265 (both DRBDs, no kinase domain) with N-terminal GST; full-length PACT with N-terminal His tag; E. coli
Test: HTRF protein-protein interaction assay
Type: binding

T1 sequence (P19525 1-265): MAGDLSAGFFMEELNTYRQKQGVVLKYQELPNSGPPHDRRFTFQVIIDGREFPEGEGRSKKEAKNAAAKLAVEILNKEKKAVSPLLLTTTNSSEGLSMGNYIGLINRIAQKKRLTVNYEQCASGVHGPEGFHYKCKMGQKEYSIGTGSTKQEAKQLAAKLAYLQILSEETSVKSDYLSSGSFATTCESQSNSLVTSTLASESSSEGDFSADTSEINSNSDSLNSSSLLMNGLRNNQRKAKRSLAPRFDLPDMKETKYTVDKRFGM
T1 sequence (O75569 whole entry, the tested form may be a part): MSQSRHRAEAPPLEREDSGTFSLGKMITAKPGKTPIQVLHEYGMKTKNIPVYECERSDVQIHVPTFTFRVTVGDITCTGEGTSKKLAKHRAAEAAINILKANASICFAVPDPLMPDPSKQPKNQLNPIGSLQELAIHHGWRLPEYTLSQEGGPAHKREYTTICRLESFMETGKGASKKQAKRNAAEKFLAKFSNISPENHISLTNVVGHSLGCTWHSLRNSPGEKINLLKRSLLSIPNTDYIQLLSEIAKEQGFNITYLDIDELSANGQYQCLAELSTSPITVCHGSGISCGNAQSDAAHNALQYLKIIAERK

Compound | IC50 [nM]
O=c1c(O)c(-c2ccc(O)c(O)c2)oc2cc(O)cc(O)c12 [quercetin] | 2000
O=c1cc(-c2ccc(O)c(O)c2)oc2cc(O)cc(O)c12 [luteolin] | 50000
O=c1c(O)c(-c2cc(O)c(O)c(O)c2)oc2cc(O)cc(O)c12 [myricetin] | 600
